Data set [1] addresses T1, caspase-1 enzyme (Homo sapiens, UniProt P29466).
T1 sequence (P29466 120-297 limits assumed): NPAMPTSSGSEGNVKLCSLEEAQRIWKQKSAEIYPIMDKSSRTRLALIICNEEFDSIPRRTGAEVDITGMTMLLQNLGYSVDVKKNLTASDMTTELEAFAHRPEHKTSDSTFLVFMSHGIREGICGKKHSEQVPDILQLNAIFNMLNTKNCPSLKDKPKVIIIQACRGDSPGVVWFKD
T1 sequence (P29466 317-404 limits assumed): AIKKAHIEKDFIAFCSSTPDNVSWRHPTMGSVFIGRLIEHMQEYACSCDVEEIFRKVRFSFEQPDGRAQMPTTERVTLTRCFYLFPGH
As to the kind of experiment: Fluorescence restoration depending on caspase-1 enzyme concentration. The class given is biochemical. Particulars: FIG. 3B. How it is done:
In order to investigate the fluorescence of the probe for measuring the activity of caspase-1 prepared in Example 4 depending on the concentration of the caspase-1 enzyme, the change in fluorescence with time was analyzed and evaluated using the caspase-1 enzyme at various concentrations (0, 2.5, 5, 7.5 and 10 units).
First, the caspase enzyme of various concentrations (0, 2.5, 5, 7.5 and 10 units) was dissolved in a reaction buffer (0.5 mM HEPES, pH 7.2, 50 mM calcium chloride, 0.1% CHAPS, 10 mM EDTA, 5% glycerol, 10 mM DTT) and incubated at 37° C. for 1 hour. After transferring 200 μL of the caspase enzyme activated through the procedure to each well of a 96-well plate and then incubating with the probe for measuring the activity of caspase-1 of Example 4 at 37° C., the restoration of fluorescence with time was observed by fluorescence spectroscopy.
The fluorescence image for each reaction solution is shown at the bottom of FIG. 3B.

For data set [2], the target named is T1, caspase-1 enzyme. Put plainly: Specific activity of probe: fluorescence restoration with caspase enzymes (caspase-1, 3, 8, 11) or caspase-1 inhibitor. The class given is biochemical. The conditions noted are these: caspase-1, 3, 8, 11 at 2 units or caspase-1 inhibitor; 37° C.; FIG. 3A. How it is done:
In order to investigate whether the probe for measuring the activity of caspase-1 prepared in Example 4 is specifically cleaved by the caspase-1 enzyme and restores fluorescence, the change in fluorescence with time was analyzed and evaluated using various caspase enzymes (caspase-1, 3, 8 and 11) and a caspase-1 inhibitor.
First, a caspase enzyme or a caspase-1 inhibitor was dissolved in a reaction buffer (0.5 mM HEPES, pH 7.2, 50 mM calcium chloride, 0.1% CHAPS, 10 mM EDTA, 5% glycerol, 10 mM DTT) and then incubated at 37° C. for 1 hour. All the enzymes were used at the same concentration of 2 units. After transferring 200 μL of the caspase enzyme activated through the procedure to each well of a 96-well plate and then incubating with the probe for measuring the activity of caspase-1 of Example 4 at 37° C., the restoration of fluorescence with time was observed by fluorescence spectroscopy.
The photographs at the bottom of FIG. 3A show the fluorescence images of the respective reaction solutions. (+)Cas-1 was treated with the caspase-1 enzyme, (+)cas-1 inhibitor was treated with the caspase-1 inhibitor, (+)cas-3 was treated with the caspase-3 enzyme, (+)cas-8 was treated with the caspase-8 enzyme, and (+)cas-11 was treated with the caspase-11 enzyme.

For data set [3], the system named is inflammation-induced animal model. As to the kind of experiment: Detection of inflammation in LPS/ATP inflammation-induced animal model, IVIS Lumina imaging. The class given is in vivo, C57BL/6 mice. How it is done: The caspase-1 enzyme is activated due to various factors. Among them, the most representative method is to activate inflammasome by administering LPS or ATP which induces early inflammation response. In Test Example 5, it was confirmed using the probe for measuring the activity of caspase-1 of Example 4 that the administration of LPS and ATP induced the activation of inflammasome, which is an early inflammation response. In this test example, an experiment was carried out using an inflammation-induced animal model in order to investigate whether the probe for measuring the activity of caspase-1 of Example 4 works well in vivo, too. In order to establish the inflammation-induced animal model, 8-week-old C57BL/6 mice acquired from Nara Bio were accustomed for a week and then reared in animal plastic cages, with 4 mice per cage. The cage was controlled with artificial lighting for 12 hours from 7 am to […], indoor temperature of 18-23° C. and 40-60% humidity. Clean water and feed were given freely. Then, physiological saline (control group), 20 μg of LPS and 50 mM ATP (Ms1 test group) or 20 μg of LPS and 100 mM ATP (Ms2 test group) was injected into the left sole of the experimental animal. After intravenously injecting the probe for measuring the activity of caspase-1 prepared in Example 4 with 3-day intervals, the respective groups were imaged with IVIS Lumina with 30-minute intervals.

The subject of data set [4] is colitis animal model (DSS). Put plainly: Imaging of DSS colitis animal model. It counts as in vivo, C57BL/6 mice. The conditions noted are these: DSS vs normal. How it is done:
In order to establish a colitis animal model, 8-week-old C57BL/6 mice acquired from Nara Bio were accustomed for a week and then reared in animal plastic cages, with 4 mice per cage. The cage was controlled with artificial lighting for 12 hours from 7 am to 7 pm, indoor temperature of 18-23° C. and 40-60% humidity. Clean water and feed were given freely. Colitis was induced by providing the experimental animal with drinking water containing 3% dextran sodium sulfate (DSS). […] Because the body weight of the colitis animal model decreases proportionally to the progress of the disease, the probe for measuring the activity of caspase-1 of Example 4 was administered on day 6, when the body weight was decreased to 80%, for imaging. As a control group (normal), a non-colitis-induced group was prepared by providing normal drinking water to the experimental animal.

Data set [5] concerns Alzheimer's animal model. As to the kind of experiment: Imaging of Alzheimer's animal model. The class given is in vivo, B6SJL-Tg (APPSwFILon, PSEN1*M146L*L286V)6799Vas/Mmjax) mice. How it is done: In order to establish an Alzheimer's animal model, 3- to 6-month-old B6SJL-Tg (APPSwFILon, PSEN1*M146L*L286V)6799Vas/Mmjax) mice acquired from the […] (Bar Harbor, USA) were accustomed for a week and then reared in animal plastic cages, with 4 mice per cage. The cage was controlled with artificial lighting for 12 hours from 7 am to 7 pm, indoor temperature of 18-23° C. and 40-60% humidity. Clean water and feed were given freely. An Alzheimer's animal model was induced through genetic APP mutation. Amyloid beta, which is the cause of dementia, is accumulated from 3 months later and form aggregates 4 months later. […] A control group (pre) was not subjected to the genetic mutation.

For data set [6], the system named is THP-1 monocytes. Put plainly: Fluorescence restoration in LPS/ATP-treated cells, fluorescence microscope. It counts as cell-based. The conditions noted are these: THP-1 treated with 1.5 μg/mL LPS and 5 mM ATP, probe 3.5 hours later; vs control without LPS/ATP; FIG. 4B. The method, then:
THP-1 monocytes were placed on a 96-well plate and treated with 1.5 μg/mL LPS and 5 mM ATP one day later. 3.5 hours later, the probe for measuring the activity of caspase-1 prepared in Example 4 was administered. Then, after culturing for 24 hours, fluorescence restoration by the probe for measuring the activity of caspase-1 in the cells was analyzed with a fluorescence microscope.
Control was treated with neither LPS nor ATP.
LPS and ATP are known to activate caspase-1. LPS is a primary signal occurring in the early stage of inflammation and ATP is a secondary signal. […] That is to say, it was confirmed that the probe for measuring the activity of caspase-1 of the present disclosure can accurately measure caspase-1 activated by inflammation response.

Data set [7] concerns T2, probe for measuring the activity of caspase-1 prepared in Example 4.
T2 sequence: GWEHDGK

For `CCN(CC)c1ccc2nc3ccc(/N=N/c4ccc(N(C)CCCC(=O)NCCCCC(NC(=O)CNC(=O)[C@H](CC(=O)O)NC(=O)[C@H](Cc5c[nH]cn5)NC(=O)[C@H](CCC(=O)O)NC(=O)[C@H](Cc5c[nH]c6ccccc56)NC(=O)CNC(=O)CCCCCCCN5/C(=C/C=C/C=C/C6=[N+](CC)c7ccc8c(S(=O)(=O)O)cc(S(=O)(=O)O)cc8c7C6(C)C)C(C)(C)c6c5ccc5c(S(=O)(=O)O)cc(S(=O)(=O)O)cc65)C(=O)O)cc4)cc3[n+](-c3ccccc3)c2c1` (stereo partly shown) [Example 4], in data set [1], the “concentration limit of the caspase-1 enzyme that could be measured” value was found to be 7.5 units. The “change in fluorescence intensity with caspase-1 enzyme concentration” value in data set [1] (caspase-1 at 0, 2.5, 5, 7.5 and 10 units, 37° C.) is recorded as “increase in fluorescence intensity as the concentration of the caspase-1 enzyme increases”. Besides, the “restoration of fluorescence with time (photoluminescence), specificity among caspase enzymes” value in data set [2] is on record as “restores fluorescence specifically only in the presence of caspase-1 at all times”. Moreover, the “in-vivo fluorescence depending on the concentration of inflammation-inducing substances (images)” value in data set [3] (LPS/ATP into left sole (Ms1: 20 μg LPS + 50 mM ATP; Ms2: 20 μg LPS + 100 mM ATP), probe intravenously, FIG. 5A) is on record as “the fluorescence was restored better”. The “quantified fluorescence from the top of the left foot and the left calf” value in data set [3] (control, Ms1 and Ms2 test groups, FIG. 5B) is recorded as “exhibits stronger fluorescence”. The “fluorescence from the groin, ham and lymph node” value in data set [3] (control, Ms1 and Ms2 test groups, FIG. 5C) is reported as “The strongest fluorescence was observed in the ham lymph node closest to the sole”. Further, the “fluorescence from the extracted large intestine” value in data set [4] (FIG. 6D) is “Strong red fluorescence was observed in the large intestine extracted from the colitis animal model”. Moreover, the “Cy5.5 fluorescence in isolated colon cells (fluorescence microscope, NLRP3 inflammasome co-staining)” value in data set [4] (FIG. 6F) was “only in the colon cells isolated from the colitis animal model”. For the same molecule, the “whole-body fluorescence images after intravenous injection” value in data set [4] (day 6, 30-minute intervals, FIG. 6C) was “red fluorescence was observed clearly in the colitis animal model”. Besides, the “fluorescence images 90 minutes after intravenous injection” value in data set [5] (Alzheimer's animal models of 3-6 months vs control (pre), FIG. 7A) is on record as “the fluorescence could be observed in the Alzheimer's animal model from 3 months”. For the same molecule, the “co-localisation of probe fluorescence with caspase-1 antibody staining in brain tissue” value in data set [5] (model of 3 months (TG), 3 hours after probe, FIG. 7E) is given as “corresponds exactly to the region immunologically stained with the caspase-1 antibody”. In addition, the “fluorescence from the brain” value in data set [5] (models of 3, 4, 5 and 6 months, FIG. 7B) is “fluorescence was observed in the brain of the Alzheimer's animal model from 4 months”. For the same molecule, the “fluorescence in quadrisected brain (fluorescence microscope)” value in data set [5] (models of 3-6 months, FIG. 7D) is “the fluorescence was observed clearly in the hippocampal region of the brain”. Moreover, in data set [5] (vs control group (WT), FIG. 7C), the “quantified fluorescence intensity from the brain” value is given as “significant fluorescence intensity began to be observed starting from the Alzheimer's animal model of 4 months”. For the same molecule, the “fluorescence restoration in cells” value in data set [6] is listed as “the fluorescence of Cy5.5 was restored effectively as compared to the control group”.

In the case of caspase-1 enzyme, the “restoration of fluorescence with time by photoluminescence (PL) after cleavage of the probe” value (“restoration of fluorescence … of the probe” below) in data set [7] is listed as “restores fluorescence specifically only in the presence of caspase-1 at all times”.

caspase-3 enzyme: in data set [7], the “restoration of fluorescence … of the probe” value is listed as “restores fluorescence specifically only in the presence of caspase-1 at all times”.

With caspase-8 enzyme, the “restoration of fluorescence … of the probe” value in data set [7] was “restores fluorescence specifically only in the presence of caspase-1 at all times”.

Take caspase-11 enzyme: in data set [7], the “restoration of fluorescence … of the probe” value was “restores fluorescence specifically only in the presence of caspase-1 at all times”.

Source of the values: patent US11618916B2, “Probe for measuring activity of Caspase-1 and composition for diagnosis of inflammatory diseases containing same” (KOREA INSTITUTE OF SCIENCE AND TECHNOLOGY, priority 2018, dated 2023).
